According to patent US20230047816A1 (priority 2018, published 2023):
Where a name gives a salt, the structure may show the parent alone. Read-outs that look alike come from different tables or passages of the source.

What was measured:
PFKFB3 = PFKFB3 (Homo sapiens, UniProt Q16875); conditions: reported in the literature; cited from earlier work
activated T-cells = conditions: reported in the literature; cited from earlier work
established tumors = conditions: reported in the literature; cited from earlier work
[1] = reported in the literature; cited from earlier work
angiogenesis = conditions: reported in the literature; cited from earlier work
neurons = assay: Neuroprotection, protection factor, NMDA treatment; format: cell-based; conditions: Treatment NMDA 100 μM 10 minutes, then inhibitor 24 hours
Description: For NMDAR activation, neurons at 8 days in vitro were incubated 100 μM NMDA (plus 10 μM glycine) for 10 minutes. Neurons were then washed and further incubated in culture medium with the PFKFB3 inhibitors for 24 hours. For b-amyloid treatment, neurons at 8 days in vitro were incubated with […] b-amyloid plus the PFKFB3 inhibitors for 24 hours. The Protection factor was estimated as [AMC(beta-A)−AMC(DMSO)]/[AMC(beta-A)−AMC(Test article)] or [AMC(beta-A)−AMC(DMSO)]/[AMC(NMDA)−AMC(Test article)], where:
AMC(DMSO)—% dead neuron in case of DMSO treatment
AMC(NMDA)—% dead neuron in case of NMDA treatment
AMC(Test article)—% dead neuron in case of PFKFB3 inhibitors treatment.

[2] = cited from earlier work
HUVECs [3] = assay: HUVEC cell viability (Cyquant NF cell proliferation assay); format: cell-based, human; conditions: normoxia (20% O2) and hypoxia (1% O2)
Description: ThermoFisher Cyquant NF cell proliferation assay kit Normoxia conditions: 37° C., 5% CO2, 20% O2 incubator Hypoxia conditions: 37° C., 5% CO2, 1% O2 incubator FIG. 2. Effect of GO-672 on vessel sprouting in vitro. Raw images from the experiment with 3D spheroids of HUVEC after treatment with GO-672 (B) and Sunitinib (A). VEGF-A was used as a stimulation factor. Dose-response plot of GO-672 (C) and Sunitinib (D).

HUVEC spheroids = assay: VEGF-A induced sprouting, spheroid-based cellular angiogenesis assay; format: cell-based; conditions: Homo sapiens; for EC50: 3D HUVEC model, VEGF-A 25 ng/ml, 24 hours, read-out: EC50 of inhibition of vessel sprouting
Description: The effect of PFKFB3 inhibitors on VEGF-A induced sprouting of HUVECs in a spheroid-based cellular angiogenesis assay. Sunitinib was used as a control. The experiments were pursued in modification of the originally published protocol (Korff and Augustin: J Cell Sci 112: 3249-58, 1999). In brief, spheroids were prepared as described (Korff and Augustin: J Cell Biol 143:1341-52, 1998) by pipetting 500 HUVEC in a hanging drop on plastic dishes to allow overnight spheroid aggregation. 50 HUVEC spheroids were then seeded in 0.9 ml of a collagen gel and pipetted into individual wells of a 24 well plate to allow polymerization. The test compounds in combination with the growth factor VEGF-A at 25 ng/ml final assay concentration) were added after 30 min by pipetting 100 μl of a 10-fold concentrated working solution on top of the polymerized gel. Plates were incubated at 37° C. for 24 hours and fixed by adding 4% Roti-Histofix (Roth, Karlsruhe, Germany). Sprouting intensity of HUVEC spheroids treated with the growth factor and the inhibitors were quantitated by an image analysis system determining the cumulative sprout length per spheroid (CSL) using an inverted microscope and the digital imaging software NIS-Elements BR 3.0 (Nikon). The mean of the cumulative sprout length of 10 randomly selected spheroids was analyzed as an individual data point.

HUVECs [4] = assay: Cell viability of HUVECs in normoxia and hypoxia; format: cell-based; conditions: both normoxia and hypoxia conditions; FIG. 1
RENCA renal tumor = assay: Orthotopic RENCA syngeneic renal tumor model; format: in vivo, female BALB/c mice; conditions: 30 mg/kg twice daily, i.p.
Description: (§1) The aim of this study was to evaluate the antitumor efficacy of GO-672 (4-({4-carboxy-2′,4′-dichloro-[1,1′-biphenyl]-3-yl}carbamoyl)-6-hydroxybenzene-1,3-dicarboxylic acid) (30 mg/kg twice daily, i.p.) in an orthotopic RENCA syngeneic renal tumor model in female BALB/c mice in vivo.

4T1-M3-Luc breast tumor = assay: Orthotopic 4T1-M3-Luc syngeneic breast tumor model; format: in vivo, female BALB/c mice
Description: as §1, with “antitumor and anti-metastatic” for “antitumor”, “4T1-M3-Luc” for “RENCA”, “breast” for “renal”
Level of metastasis was evaluated in lymph nodes, lung, spine and ileum by ex vivo luciferase bioluminescence measurements (FIG. 10D).

MDA-MB-468 = assay: Combination with anticancer agents, MDA-MB-468; format: cell-based; conditions: Homo sapiens, anticancer agent alone
Description: (§2) All cells can be incubated in the plates overnight at 37° C., 5% 002 incubator with different medium.

T-47D = assay: Combination with anticancer agents, T-47D; format: cell-based; conditions: Homo sapiens, T47D, anticancer agent alone
Description: as §2

MDA-MB-231 = assay: Combination with anticancer agents, MDA-MB-231; format: cell-based; conditions: Homo sapiens, anticancer agent alone
Description: as §2

BT-549 = assay: Combination with anticancer agents, BT-549; format: cell-based; conditions: Homo sapiens, anticancer agent alone
Description: as §2

Hs-578T = assay: Combination with anticancer agents, Hs-578T; format: cell-based; conditions: Homo sapiens, anticancer agent alone
Description: as §2

MCF-7 = assay: Combination with anticancer agents, MCF-7; format: cell-based; conditions: Homo sapiens, MCF7, anticancer agent alone
Description: as §2

[5] = all treated patients; cited from earlier work
[6] = 30 mg/kg twice daily, i.p., day 18

Sequence of PFKFB3 (Q16875 whole entry, species assumed): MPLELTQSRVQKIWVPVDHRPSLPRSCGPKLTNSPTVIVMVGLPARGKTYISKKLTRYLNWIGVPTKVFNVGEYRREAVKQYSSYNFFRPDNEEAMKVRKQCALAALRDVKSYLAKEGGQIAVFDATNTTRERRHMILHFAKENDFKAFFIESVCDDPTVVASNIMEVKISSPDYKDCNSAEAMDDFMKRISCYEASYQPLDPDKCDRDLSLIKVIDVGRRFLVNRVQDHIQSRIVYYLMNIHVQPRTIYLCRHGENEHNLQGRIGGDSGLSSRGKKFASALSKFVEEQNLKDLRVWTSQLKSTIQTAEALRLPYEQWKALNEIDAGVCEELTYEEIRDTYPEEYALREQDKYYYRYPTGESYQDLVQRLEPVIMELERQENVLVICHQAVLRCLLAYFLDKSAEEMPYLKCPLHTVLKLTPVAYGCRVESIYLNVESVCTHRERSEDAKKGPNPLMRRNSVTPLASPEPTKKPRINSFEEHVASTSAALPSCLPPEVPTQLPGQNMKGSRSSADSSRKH

O=C(C=Cc1cccnc1)c1ccncc1 [Compound 3PO, 3-(3-pyridinyl)-1-(4-pyridinyl)-2-propen-1-one]
PFKFB3 inhibition (PFKFB3): inhibit PFKFB3 | proliferation of activated T-cells (activated T-cells): inhibit proliferation of activated T-cells | growth of established tumors in vivo (established tumors): reduce growth of established tumors in vivo | glucose uptake [1]: reduce glucose uptake | intracellular concentration of Fru-2,6-BP [1]: reduce intracellular concentration of Fru-2,6-BP | angiogenesis (angiogenesis): inhibit angiogenesis

CC(CN(C)C)OC(=O)c1ccc(-c2ccc(F)c(F)c2)cc1N1Cc2ccc(-c3cn[nH]n3)cc2C1=O (stereo not drawn)
Protection factors (neurons): 2.56

O=C(O)c1nn(Cc2ccc(Cl)cc2Cl)c2ccccc12 [Lonidamine]
toxicities in preclinical trials [2]: significant pancreatic and hepatic toxicities

O=C(O)c1cc(C(=O)O)c(C(=O)Nc2cc(-c3ccc(Cl)cc3Cl)ccc2C(=O)O)cc1O [Compound 1, 4-({4-carboxy-2′,4′-dichloro-[1,1′-biphenyl]-3-yl}carbamoyl)-6-hydroxybenzene-1,3-dicarboxylic acid]
cell viability of HUVECs (HUVECs [3]): did not reduce cell viability | Emax at 100 µM (HUVEC spheroids; HUVEC, at 100 μM, read-out: maximal effect: decrease of vessel sprouting down to): ~25% | Emax (HUVEC spheroids; HUVEC, at the highest doses, read-out: maximal effect of vessel reduction, % from the initial level): 25 to 50% | EC50 (HUVEC spheroids): 20 to 40 µM | cell viability of HUVECs (HUVECs [4]): did not reduce cell viability | bioluminescence (RENCA renal tumor; day 16): increase of bioluminescence | tumor volume after necropsy (RENCA renal tumor; day 17): significantly decreased | tumor weight after necropsy (RENCA renal tumor; day 17): no statistically significant difference | reduction of body weight vs control group (4T1-M3-Luc breast tumor; 30 mg/kg twice daily, i.p.): not significant | T/C ratio (tumor volume) (4T1-M3-Luc breast tumor; 30 mg/kg twice daily, i.p., day 4): 47% | T/C ratio (tumor volume) (4T1-M3-Luc breast tumor; 30 mg/kg twice daily, i.p., day 7): 65% | tumor volume after necropsy (4T1-M3-Luc breast tumor; [6]): significantly lower | tumor weight after necropsy (4T1-M3-Luc breast tumor; [6]): not tumor weight | level of metastasis (ex vivo luciferase bioluminescence) (4T1-M3-Luc breast tumor; lymph nodes, lung, spine and ileum): No statistically significant difference

O=C(/C=C/c1ccc2ccc(C(F)(F)F)cc2n1)c1ccncc1 [ACT-PFK-158, (E)-1-(pyridin-4-yl)-3-(7-(trifluoromethyl)quinolin-2-yl)prop-2-en-1-one]
PFKFB3 inhibition (PFKFB3): inhibit PFKFB3 | growth of established tumors in vivo (established tumors): reduce growth of established tumors in vivo | glucose uptake [1]: reduce glucose uptake | intracellular concentration of Fru-2,6-BP [1]: reduce intracellular concentration of Fru-2,6-BP

O=C1NCC(COC(=O)c2ccc(-c3ccc(F)c(F)c3)cc2N2Cc3ccc(-c4cn[nH]n4)cc3C2=O)O1 (stereo not drawn)
Protection factors (neurons): 1.05

O=C(OCC(O)CO)c1ccc(-c2ccc(F)c(F)c2)cc1N1Cc2ccc(-c3cn[nH]n3)cc2C1=O (stereo not drawn)
Protection factors (neurons): 1.35

COc1cccc2c1C(=O)c1c(O)c3c(c(O)c1C2=O)C[C@@](O)(C(=O)CO)C[C@@H]3O[C@H]1C[C@H](N)[C@H](O)[C@H](C)O1 [Doxorubicin, Doxorubicin Hydrochloride]
IC50 (MDA-MB-468): 0.07 µM

CCN(CC)CCNC(=O)c1c(C)[nH]c(/C=C2\C(=O)Nc3ccc(F)cc32)c1C [Sunitinib, reference compound]
Emax (HUVEC spheroids; HUVEC, positive control, read-out: maximal effect (inhibition of vessel sprouting)): 100% | EC50 (HUVEC spheroids): 0.1 µM

O=C(c1cc(Cc2n[nH]c(=O)c3ccccc23)ccc1F)N1CCN(C(=O)C2CC2)CC1 [Olaparib]
IC50 (T-47D): 38.6 µM

NC(=O)c1cccc2cn(-c3ccc([C@@H]4CCCNC4)cc3)nc12 [Niraparib]
IC50 (MDA-MB-231): 14.6 µM | IC50 (BT-549): 31 µM | IC50 (T-47D): 21 µM | IC50 (Hs-578T): 36 µM | IC50 (MCF-7): 14.5 µM

CC(=O)O[C@H]1C(=O)[C@@]2(C)[C@H]([C@H](OC(=O)c3ccccc3)[C@]3(O)C[C@H](OC(=O)[C@H](O)[C@@H](NC(=O)c4ccccc4)c4ccccc4)C(C)=C1C3(C)C)[C@]1(OC(C)=O)CO[C@@H]1C[C@@H]2O [Paclitaxel]
IC50 (MDA-MB-468): 0.01 µM

O=CC[C@@H](O)[C@H](O)[C@H](O)CO [2-deoxy-D-glucose]
adverse effect in clinical trial [5]: hyperglycemia in all treated patients
